Experimental data as given in ChEMBL document CHEMBL3885861, “Open TG-GATES”.

Species: Rattus norvegicus
Experiment: Open TG-GATES - Regimen: Daily Repeat
Type: toxicity, organism-based, Sprague-Dawley
Set-up: regimen Daily Repeat, gender Male, age 6 weeks
Details: in vivo, po, 0 mg/kg, route gavage, dose level Control; for APTT / Bas / Eos / Fbg / Hb / Ht / Lym / MCH / MCHC / MCV / Mono / Neu / PT / Plat / RBC / Ret / WBC: tissue Blood; for KIDNEY_L / KIDNEY_R / KIDNEY_TOTAL: tissue Kidney; for LIVER: tissue Liver; for A/G / ALP / ALT / AST / BUN / CRE / Ca / Cl / DBIL / GLC / IP / K / LDH / Na / PL / RALB / TBIL / TC / TG / TP / gamma-GTP: tissue Plasma

For `CCC1(c2ccccc2)C(=O)NC(=O)NC1=O` [PHENOBARBITAL], the TERMINAL_BW (72 h, time 3 day) was 222.1 g, the APTT (72 h, time 3 day) was 15.6 s and the Bas (72 h, time 3 day) was 0%. It also gave an Eos (72 h, time 3 day) of 0.6%, a Fbg (72 h, time 3 day) of 225 mg/dL and a Hb (72 h, time 3 day) of 13.2 g/dL. For the same compound, the Ht (72 h, time 3 day) was 39.4%, the Lym (72 h, time 3 day) was 76.8% and the MCH (72 h, time 3 day) was 22.4 pg. The MCHC (72 h, time 3 day) was 33.6%, the MCV (72 h, time 3 day) was 66.9 fL and the Mono (72 h, time 3 day) was 7.4%. The Neu (72 h, time 3 day) was 15.2%, the PT (72 h, time 3 day) was 12 s and the Plat (72 h, time 3 day) was 126.6 x10_4/uL. For the same compound, the RBC (72 h, time 3 day) was 589.6 x10_4/ul, the Ret (72 h, time 3 day) was 7.7% and the WBC (72 h, time 3 day) was 129.8 x10_2/uL. For the same compound, the KIDNEY_L (72 h, time 3 day) was 0.9 g, the KIDNEY_R (72 h, time 3 day) was 1 g and the KIDNEY_TOTAL (72 h, time 3 day) was 1.9 g. The LIVER (72 h, time 3 day) was 11.2 g, the A/G (72 h, time 3 day) was 1.6 and the ALP (72 h, time 3 day) was 912.8 IU/L. The ALT (72 h, time 3 day) was 34 IU/L, the AST (72 h, time 3 day) was 61.4 IU/L and the BUN (72 h, time 3 day) was 16 mg/dL. The CRE (72 h, time 3 day) was 0.5 mg/dL, the Ca (72 h, time 3 day) was 10.8 mg/dL and the Cl (72 h, time 3 day) was 106.6 meq/L. It also gave a DBIL (72 h, time 3 day) of 0.01 mg/dL, a GLC (72 h, time 3 day) of 201.8 mg/dL and an IP (72 h, time 3 day) of 7.9 mg/dL. The K (72 h, time 3 day) was 4.9 meq/L, the LDH (72 h, time 3 day) was 84.2 IU/L and the Na (72 h, time 3 day) was 139.4 meq/L. The PL (72 h, time 3 day) was 158.6 mg/dL, the RALB (72 h, time 3 day) was 3.6 g/dL and the TBIL (72 h, time 3 day) was 0.4 mg/dL. The TC (72 h, time 3 day) was 80.2 mg/dL, the TG (72 h, time 3 day) was 142.6 mg/dL and the TP (72 h, time 3 day) was 5.9 g/dL. For the same compound, the gamma-GTP (72 h, time 3 day) was 1.8 IU/L, the TERMINAL_BW ([…], time 7 day) was 254.1 g and the TERMINAL_BW ([…], time 14 day) was 296 g. For the same compound, the TERMINAL_BW ([…], time 28 day) was 396.2 g, the APTT ([…], time 7 day) was 15.9 s and the Bas ([…], time 7 day) was 0%. It also gave an Eos ([…], time 7 day) of 0.8%, a Fbg ([…], time 7 day) of 224.8 mg/dL and a Hb ([…], time 7 day) of 14.2 g/dL. The Ht ([…], time 7 day) was 42.7%, the Lym ([…], time 7 day) was 82.2% and the MCH ([…], time 7 day) was 21.9 pg. For the same compound, the MCHC ([…], time 7 day) was 33.4%, the MCV ([…], time 7 day) was 65.5 fL and the Mono ([…], time 7 day) was 6.8%. The Neu ([…], time 7 day) was 10.4%, the PT ([…], time 7 day) was 11.9 s and the Plat ([…], time 7 day) was 110.9 x10_4/uL. For the same compound, the RBC ([…], time 7 day) was 652 x10_4/ul, the Ret ([…], time 7 day) was 6.1% and the WBC ([…], time 7 day) was 125.6 x10_2/uL. For the same compound, the APTT ([…], time 14 day) was 16.5 s, the Bas ([…], time 14 day) was 0% and the Eos ([…], time 14 day) was 0.4%. The Fbg ([…], time 14 day) was 241.4 mg/dL, the Hb ([…], time 14 day) was 14.7 g/dL and the Ht ([…], time 14 day) was 44.1%. The Lym ([…], time 14 day) was 88.2%, the MCH ([…], time 14 day) was 20.6 pg and the MCHC ([…], time 14 day) was 33.4%. The MCV ([…], time 14 day) was 61.9 fL, the Mono ([…], time 14 day) was 3.6% and the Neu ([…], time 14 day) was 7.8%. For the same compound, the PT ([…], time 14 day) was 11.6 s, the Plat ([…], time 14 day) was 113.2 x10_4/uL and the RBC ([…], time 14 day) was 713.2 x10_4/ul. It also gave a Ret ([…], time 14 day) of 5.1%, a WBC ([…], time 14 day) of 153.7 x10_2/uL and an APTT ([…], time 28 day) of 17 s. For the same compound, the Bas ([…], time 28 day) was 0%, the Eos ([…], time 28 day) was 0.8% and the Fbg ([…], time 28 day) was 236 mg/dL. It also gave a Hb ([…], time 28 day) of 14.8 g/dL, a Ht ([…], time 28 day) of 44.6% and a Lym ([…], time 28 day) of 84.4%. It also gave an MCH ([…], time 28 day) of 19.3 pg, an MCHC ([…], time 28 day) of 33.2% and an MCV ([…], time 28 day) of 58.2 fL. For the same compound, the Mono ([…], time 28 day) was 5.6%, the Neu ([…], time 28 day) was 9.4% and the PT ([…], time 28 day) was 12 s. It also gave a Plat ([…], time 28 day) of 109 x10_4/uL, an RBC ([…], time 28 day) of 766 x10_4/ul and a Ret ([…], time 28 day) of 2.6%. For the same compound, the WBC ([…], time 28 day) was 129.1 x10_2/uL, the KIDNEY_L ([…], time 7 day) was 1 g and the KIDNEY_R ([…], time 7 day) was 1 g. For the same compound, the KIDNEY_TOTAL ([…], time 7 day) was 2.1 g, the KIDNEY_L ([…], time 14 day) was 1.1 g and the KIDNEY_R ([…], time 14 day) was 1.1 g. For the same compound, the KIDNEY_TOTAL ([…], time 14 day) was 2.2 g, the KIDNEY_L ([…], time 28 day) was 1.4 g and the KIDNEY_R ([…], time 28 day) was 1.4 g. It also gave a KIDNEY_TOTAL ([…], time 28 day) of 2.8 g, an LIVER ([…], time 7 day) of 12.4 g and an LIVER ([…], time 14 day) of 13.5 g. The LIVER ([…], time 28 day) was 16.7 g, the A/G ([…], time 7 day) was 1.5 and the ALP ([…], time 7 day) was 1114.2 IU/L. For the same compound, the ALT ([…], time 7 day) was 32 IU/L, the AST ([…], time 7 day) was 62 IU/L and the BUN ([…], time 7 day) was 19.2 mg/dL. It also gave a CRE ([…], time 7 day) of 0.5 mg/dL, a Ca ([…], time 7 day) of 10.9 mg/dL and a Cl ([…], time 7 day) of 104.6 meq/L. The DBIL ([…], time 7 day) was 0.054 mg/dL, the GLC ([…], time 7 day) was 206.4 mg/dL and the IP ([…], time 7 day) was 7.9 mg/dL. For the same compound, the K ([…], time 7 day) was 4.9 meq/L, the LDH ([…], time 7 day) was 99.8 IU/L and the Na ([…], time 7 day) was 139.4 meq/L. It also gave a PL ([…], time 7 day) of 158.2 mg/dL, an RALB ([…], time 7 day) of 3.5 g/dL and a TBIL ([…], time 7 day) of 0.3 mg/dL. It also gave a TC ([…], time 7 day) of 73 mg/dL, a TG ([…], time 7 day) of 150 mg/dL and a TP ([…], time 7 day) of 5.9 g/dL. The gamma-GTP ([…], time 7 day) was 1.4 IU/L, the A/G ([…], time 14 day) was 1.5 and the ALP ([…], time 14 day) was 764.6 IU/L. It also gave an ALT ([…], time 14 day) of 31.4 IU/L, an AST ([…], time 14 day) of 63.4 IU/L and a BUN ([…], time 14 day) of 19 mg/dL. It also gave a CRE ([…], time 14 day) of 0.6 mg/dL, a Ca ([…], time 14 day) of 10.6 mg/dL and a Cl ([…], time 14 day) of 105.4 meq/L. For the same compound, the DBIL ([…], time 14 day) was 0.002 mg/dL, the GLC ([…], time 14 day) was 207.8 mg/dL and the IP ([…], time 14 day) was 8.4 mg/dL. For the same compound, the K ([…], time 14 day) was 4.5 meq/L, the LDH ([…], time 14 day) was 102.4 IU/L and the Na ([…], time 14 day) was 141.4 meq/L. The PL ([…], time 14 day) was 159.4 mg/dL, the RALB ([…], time 14 day) was 3.8 g/dL and the TBIL ([…], time 14 day) was 0.2 mg/dL. It also gave a TC ([…], time 14 day) of 75.4 mg/dL, a TG ([…], time 14 day) of 138.6 mg/dL and a TP ([…], time 14 day) of 6.3 g/dL. The gamma-GTP ([…], time 14 day) was 0.8 IU/L, the A/G ([…], time 28 day) was 1.5 and the ALP ([…], time 28 day) was 596.8 IU/L. For the same compound, the ALT ([…], time 28 day) was 29.6 IU/L, the AST ([…], time 28 day) was 56.2 IU/L and the BUN ([…], time 28 day) was 20 mg/dL. It also gave a CRE ([…], time 28 day) of 0.4 mg/dL, a Ca ([…], time 28 day) of 10.4 mg/dL and a Cl ([…], time 28 day) of 106.4 meq/L. The DBIL ([…], time 28 day) was 0.006 mg/dL, the GLC ([…], time 28 day) was 201 mg/dL and the IP ([…], time 28 day) was 8 mg/dL. For the same compound, the K ([…], time 28 day) was 4.5 meq/L, the LDH ([…], time 28 day) was 86 IU/L and the Na ([…], time 28 day) was 140.4 meq/L. The PL ([…], time 28 day) was 165.8 mg/dL, the RALB ([…], time 28 day) was 3.9 g/dL and the TBIL ([…], time 28 day) was 0.3 mg/dL. For the same compound, the TC ([…], time 28 day) was 76.4 mg/dL, the TG ([…], time 28 day) was 213.2 mg/dL and the TP ([…], time 28 day) was 6.5 g/dL. The gamma-GTP ([…], time 28 day) was 1.4 IU/L.
